Tested on: Myo7a+ hair cells and Sox2+ cells in sisomicin-damaged rat cochlear organoids
Assay: Rat cochlear organoids after sisomicin damage
Assay type: cell-based
Protocol: On day 0, the cochlear sensory epithelium was dissected and the OC was separated from the modiolus and stria vascularis, as described above, from either Wistar rat pups (P2), Lgr5-GFP mice (P0–P2) or Atoh1-GFP mice (P0–P2). To separate the sensory epithelial layer from underlying mesenchyme and neurons, the OC was placed in a 100 μl drop of Matrisperse Cell Recovery Solution (Corning) for 1 h at RT, then delaminated with the aid of forceps. Gentle enzymatic dissociation of hair cells and supporting cells followed with 100 μl drop of TrypLE (Gibco), 20 min at 37°C, then mechanical trituration in DMEM/F12. The cell suspension was centrifuged for 5 min at 500 g at 4°C and resuspended in DMEM/F12 medium supplemented with B27 and N2 (Invitrogen), EGF (50 ng/ml), bFGF (50 ng/ml), IGF (25 ng/ml), CHIR99021 (GSK-3β inhibitor, 3 μM, Merck), valproic acid (HDAC inhibitor, 1 mM, Sigma), 2-phospho-L-ascorbic acid (280 μM, Stemcell Technologies) and 0.01% ampicillin (Sigma). Cells were plated at 2,000 cells per well on 96 wells plate (Corning Costar; ultra-low attachment, round-bottom) to allow aggregation at 37°C. On day 1, Matrigel (GF-depleted, Corning; 2% stock) was added to a final concentration of 0.18 mg/ml. […]
For staining and imaging, organoids were allowed to adhere ON onto transwell-permeable support membranes (Corning) in 12-well plates coated with 100% Matrigel. […] Compiled Z-projections were processed (FIJI, ver2.0) and hair cells quantified on individual planes with manual cell counter plugin, by evaluation of cytosolic expression and nuclear exclusion of Myo7a. […]
Finally, the regenerative potential of CPD3 was assessed with rat cochlear organoids testing the efficacy of CPD3 to transdifferentiate any remaining supporting cells after ototoxic damage. […] A decrease in Myo7a+ hair cells was detected 7 days following sisomicin damage (Figure 6D). […]

In the case of `COc1ccc2c(c1)N1CCC(C)(C)C1=CC(=O)[C@H]2NC(=O)[C@H](C)NC(=O)CCC(F)(F)F` [CPD3], the “Total number of Sox2 positive cells in the organoid” value (after sisomicin damage) is reported as “did not change”, the “Number of Myo7a+/Sox2+ hair cells” value (after sisomicin damage, p < 0.001) is reported as “did increase” and the “Myo7a+ hair cells after sisomicin damage” value (sisomicin 500 μM 2 h at day 20, 7 days culture, vs sisomicin only, p < 0.001) is reported as “significant increase”.

Source: PMC8414802, “Hair Cell Generation in Cochlear Culture Models Mediated by Novel γ-Secretase Inhibitors” (Frontiers in Cell and Developmental Biology, 2021)
